Tests used:
[1] = test system: complementary RNA 3′-r(CGCAAAAAACGA) (SEQ ID NO:12); test: Melting temperature (Tm) of annealing products of antisense oligonucleotide analogues with complementary RNA sense strand; type: binding; conditions: for Tm for complementary RNA: 100 mM NaCl, 10 mM sodium phosphate buffer (pH 7.2), 4 μM antisense strand, 4 μM sense strand, UV 260 nm; for ΔTm/mod. for complementary RNA: change of Tm per modified residue versus natural strand
Procedure: (§1) The melting temperatures (Tm's) of annealing products between antisense strands, which were the various oligonucleotide analogues synthesized in Example 2, and natural DNA- or RNA-based sense strands were measured to investigate the hybridizing ability of the oligonucleotide analogues of the present invention for complementary DNA and RNA.
(§2) Each sample solution (500 μL) with end concentrations of 100 mM NaCl, 10 mM sodium phosphate buffer (pH 7.2), 4 μM antisense strand, and 4 μM sense strand, respectively, was bathed in boiling water, and slowly cooled to room temperature over the course of 10 hours. The sample solution was gradually cooled to 5° C., kept at 5° C. for a further period of 20 minutes, and then started to be measured, with a stream of nitrogen being passed through a cell chamber of a spectrophotometer (UV-2100PC, Shimadzu) for prevention of moisture condensation. The sample temperature was raised at a rate of 0.2° C./minute until 90° C., and the ultraviolet absorption at 260 nm was measured at intervals of 0.1° C. To prevent changes in the sample concentration with increases in the temperature, the cell was provided with a closure, and a drop of a mineral oil was applied onto the surface of the sample solution during measurement.

[2] = test system: complementary DNA 3′-CGCAAAAAACGA-5′ (SEQ ID NO:12); test: Melting temperature (Tm) of annealing products of antisense oligonucleotide analogues with complementary DNA sense strand; type: binding; conditions: for Tm for complementary DNA: 100 mM NaCl, 10 mM sodium phosphate buffer (pH 7.2), 4 μM antisense strand, 4 μM sense strand, UV 260 nm; for ΔTm/mod. for complementary DNA: change of Tm per modified residue versus natural strand
Procedure: as §1, §2

[3] = target: snake venom phosphodiesterase (Crotalus adamanteus, UniProt J3SEZ3)
Chain of snake venom phosphodiesterase (J3SEZ3 24-851 limits assumed): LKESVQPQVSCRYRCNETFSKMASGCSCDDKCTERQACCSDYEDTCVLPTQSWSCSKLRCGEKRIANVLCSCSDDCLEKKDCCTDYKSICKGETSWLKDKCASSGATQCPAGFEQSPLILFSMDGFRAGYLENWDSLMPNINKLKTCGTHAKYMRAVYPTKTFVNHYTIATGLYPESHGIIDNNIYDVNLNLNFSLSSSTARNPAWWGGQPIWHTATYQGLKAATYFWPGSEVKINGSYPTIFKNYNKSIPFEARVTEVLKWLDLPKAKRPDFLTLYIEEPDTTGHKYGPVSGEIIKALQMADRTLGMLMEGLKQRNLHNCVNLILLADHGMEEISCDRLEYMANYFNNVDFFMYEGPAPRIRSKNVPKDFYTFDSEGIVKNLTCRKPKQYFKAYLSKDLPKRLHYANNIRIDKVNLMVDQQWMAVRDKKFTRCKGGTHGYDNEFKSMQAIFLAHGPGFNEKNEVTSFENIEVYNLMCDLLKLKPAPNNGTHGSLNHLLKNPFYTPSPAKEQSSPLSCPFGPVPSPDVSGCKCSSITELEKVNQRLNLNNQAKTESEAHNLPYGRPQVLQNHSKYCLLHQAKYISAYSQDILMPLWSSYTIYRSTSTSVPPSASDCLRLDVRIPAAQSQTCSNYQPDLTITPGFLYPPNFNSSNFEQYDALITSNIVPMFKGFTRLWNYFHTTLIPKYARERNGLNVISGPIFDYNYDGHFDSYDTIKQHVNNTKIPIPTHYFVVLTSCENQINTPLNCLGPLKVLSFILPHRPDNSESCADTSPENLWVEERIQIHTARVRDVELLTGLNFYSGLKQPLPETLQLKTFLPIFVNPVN

[4] = total increase versus natural strand

Row | Compound | Tm for complementary RNA [1] | ΔTm/mod. for complementary RNA [1] | Tm for complementary DNA [2] | ΔTm/mod. for complementary DNA [2] | further results
1 | 5′-GCGTTXTTTGCT-3′ [Compound T2XT3] | 49 °C | +4 °C | 49 °C | +2 °C | 
2 | 5′-GCGTTTXTTGCT-3′ [Compound T3XT2] | 50 °C | +5 °C | 49 °C | +2 °C | 
3 | 5′-GCGXXTTTTGCT-3′ [Compound X2T4] | 53 °C | +4 °C | 51 °C | +2 °C | 
4 | 5′-GTTTTTTTTTTTC-3′ [natural type] |  |  |  |  | time until ultraviolet absorption reached a plateau after initiation of the enzyme reaction [3]: about 30 minutes; t½ (half-life) ([3]; pH 8.6): 4.33 min
5 | 5′-GCGTTXXTTGCT-3′ [Compound T2X2T2] | 53 °C | +4 °C | 49 °C | +1 °C | 
6 | 5′-GCGXXXXXXGCT-3′ [Compound X6] | 71 °C | +4.3 °C | 58 °C | +1.8 °C | increase in Tm per modified residue, complementary RNA ([1]; per modified residue versus natural strand): 4 degrees; increase in Tm over the natural strand, complementary RNA [1, 4]: more than 25 degrees; rise in Tm as compared with the natural strand, complementary DNA oligomer [2, 4]: 11 degrees
7 | CC(C)C(=O)Nc1nc2c(ncn2[C@@H]2O[C@@]3(CO[Si](c4ccccc4)(c4ccccc4)C(C)(C)C)CO[C@@H]2[C@@H]3OCc2ccccc2)c(=O)[nH]1 |  |  |  |  | melting point: 99 to 100 °C
8 | 5′-GCGTTTTXXGCT-3′ [Compound T4X2] | 55 °C | +5 °C | 54 °C | +3.5 °C | 
9 | Cc1cn([C@@H]2O[C@@]3(CO)CO[C@@H]2[C@@H]3O)c(=O)[nH]c1=O [Compound 39a, 2′-O,4′-C-methylene-5-methyluridine] |  |  |  |  | melting point: 194 to 195 °C
10 | CC(C)(C)[Si](OC[C@@]12CO[C@@H]([C@H](n3cnc4c(NCc5ccccc5)ncnc43)O1)[C@@H]2OCc1ccccc1)(c1ccccc1)c1ccccc1 |  |  |  |  | melting point: 80 to 81 °C
11 | 5′-GCGXTTTTTGCT-3′ [XT6] | 49 °C | +4 °C | 50 °C | +3 °C | 
12 | 5′-GCGTTTTTXGCT-3′ [Compound T5X] | 51 °C | +6 °C | 52 °C | +4 °C | 
13 | 5′-GCGTTTTTTTGCT-3′ [natural, reference compound] | 45 °C |  | 47 °C |  | 

Source: US6770748B2, “Bicyclonucleoside and oligonucleotide analogue” (priority 1997, dated 2004)
